Measurements taken from patent US20240043420A1, “7-AZAINDOLE COMPOUNDS FOR INHIBITION OF BCR-ABL TYROSINE KINASES” (EnLiven Therapeutics, Inc., priority 2020, published 2024).

Assays:
ABL1 = molecular target: T1, ABL1 (Homo sapiens, UniProt P00519); assay: Luminescence-based ABL kinase assay (ADP-Glo, 300 μM ATP); type: biochemical
T1 construct: purchased Carna Biosciences
Procedure, shortened: (§1)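 Buffer: 50 mM HEPES pH 7.5, 10 mM MgCl2, 1 mM EGTA, 2 mM DTT, 0.05% BSA. Compound preincubated 30 min at RT with kinase (3.325 nM in enzyme solution), then started with a Peptide 2 (6 μM) and ATP (1.2 mM) solution, both stock levels; 90 min at RT.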

HL60 cells = assay: HL60 cell proliferation assay (CellTiter-Glo); type: cell-based; conditions: Homo sapiens, HL-60, 72 h, CellTiter-Glo viability, read-out: Cell Line (IC50, nM) HL60
Procedure, shortened: (§2)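 Cells in IMDM/10% FBS seeded at 2,000 (K562) or 1,500 (HL60) per well, exposed to serially diluted compounds for 72 h at 37 °C, 5% CO2. Viability by CellTiter-Glo luminescence, normalized between DMSO (high) and cell-free media (low) controls.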

K562 cells = assay: K562 cell proliferation assay (CellTiter-Glo); type: cell-based; conditions: Homo sapiens, K562, 72 h, CellTiter-Glo viability, read-out: Cell Line (IC50, nM) K562
Procedure, shortened: as §2

ABL1 (T315I) = ABL1 (T315I) (Homo sapiens, UniProt P00519, T315I); assay: Luminescence-based ABL kinase assay (ADP-Glo, 300 μM ATP), T315I mutant; type: biochemical
Procedure, shortened: as §1

pCRKL in K562 cells = assay: pCRKL ELISA assay in K562 cells; type: cell-based; conditions: Homo sapiens, 1.5 h, 90 minutes incubation, read-out: PCRKL ELISA, Cell Line IC50 (nM) K562
Protocol: K562 or Ba/F3 ABL T315I cells (2.0*10^5 cells/100 μl/well) were seeded in 96 well (Corning, cat #3799). Compounds were dissolved in DMSO, serially diluted in DMSO and then were added, mixed, and incubated for 90 minutes at 37° C., 5% CO2. Following the 90-minute incubation, plates were centrifuged for 5 min at 3000 RPM and supernatant was removed from each well. Cells were washed 3 times with 150 μl PBS prior to addition of 100 μl cell RIPA lysis buffer (Boston BioProducts, cat #BP-115D) supplied with 1×complete ULTRA cocktail inhibitor (Roche, 05892791001) and 1×PhosSTOP Phosphatase Inhibitor Cocktail Tablets (Roche, 04906837001). Cells were incubated with lysis buffer for 1 hour at 4° C. prior to storage at −80 C.
A capture antibody able to detect phosphorylated and non-phosphorylated CRKL (R&D Systems, cat #AF5127) was added to Meso Scale Discovery (MSD) standard bind plates (MSD, cat #L15XA-3) at 5 ug/mL and incubated at 4° C. overnight. The next day, plates were washed with PBS+0.05% Tween20 (PBST) and 150 μl of 5% BSA blocking solution was added for 1 hour at room temperature with shaking. Plates were washed with PBST. Lysates were thawed and 30 μl of lysate was added to the MSD plates and incubated for 2 hours at room temperature with shaking. MSD plates were washed with PBST and 30 μl of a detection antibody that binds phosphorylated pCRKL (R&D Systems, cat #MAB6910) was added at 1 μg/mL to each well. Plates were incubated for 1 hour at room temperature with shaking. Plates were washed with PBST prior to addition of 30 μl of a sulfo tagged goat anti mouse detection antibody (MSD cat #R32AC-1). Plates were incubated for 1 hour at room temperature with shaking. Plates were washed with PBST prior to addition of 150 ul of 1×MSD read buffer T (MSD, cat 4R92TC-2). Electrochemiluminescence (ECLU) was read on an MSD plate reader (Meso Scale Discovery). The remaining activity by calculated as follows: 00 Relative activity=100×(ELCUsample−ECLULC)/(ECLUHC−ECLULC). The low and high controls (LC/HC) are generated from lysate from wells without cells or with cells treated with 0.1% DMSO, respectively. IC50 values were calculated using XLFit software using a nonlinear regression model with a sigmoidal dose response and are shown in Table 4 and Table 5 below.

Row | IC50 (ABL1) [nM] | IC50 (HL60 cells) [nM] | IC50 (K562 cells) [nM] | IC50 (ABL1 (T315I)) [nM] | IC50 (pCRKL in K562 cells) [nM] | Compound
1 | 8.17 | > 10000 | 80.3 | 0.896 | 174 | COc1ccccc1-c1c[nH]c2nc(NC(=O)[C@@H]3C[C@@H]3F)ccc12 [Compound 3, (1S,2S)-2-fluoro-N-(3-(2-methoxyphenyl)-1H-pyrrolo[2,3-b]pyridin-6-yl)cyclopropane-1-carboxamide]
2 | 12.1 | 1710 | 181 | 2.78 | 468 | COc1c(-c2c[nH]c3nc(NC(=O)C4CC4)ccc23)ccc2[nH]cnc12 [Compound 15, N-[3-(4-methoxy-1H-1,3-benzodiazol-5-yl)-1H-pyrrolo[2,3-b]pyridin-6-yl]cyclopropanecarboxamide]
3 | 62.9 | > 10000 | 220 | 68.4 | 680 | COc1ncccc1-c1c[nH]c2nc(NC(=O)[C@H]3C[C@H]3F)ccc12 [Compound 26, (1R,2R)-2-fluoro-N-(3-(2-methoxypyridin-3-yl)-1H-pyrrolo[2,3-b]pyridin-6-yl)cyclopropane-1-carboxamide]
4 | 45.4 | > 10000 | 254 | 12.7 | 88.3 | COc1ccccc1-c1c[nH]c2nc(NC(=O)NCCN3CCN(C)CC3)ccc12 [Compound 42, 3-[3-(2-methoxyphenyl)-1H-pyrrolo[2,3-b]pyridin-6-yl]-1-[2-(4-methylpiperazin-1-yl)ethyl]urea]
5 | 23.1 | > 10000 | 151 | 39.8 | 275 | COc1ccccc1-c1n[nH]c2nc(NC(=O)C3CC3)ccc12 [Compound 44, N-[3-(2-methoxyphenyl)-1H-pyrazolo[3,4-b]pyridin-6-yl]cyclopropanecarboxamide]
6 | 7.47 | > 10000 | 292 | 0.705 | 685 | CCOc1ncccc1-c1c[nH]c2nc(NC(=O)C3CC3)ccc12 [Compound 47, N-[3-(2-ethoxypyridin-3-yl)-1H-pyrrolo[2,3-b]pyridin-6-yl]cyclopropanecarboxamide]
7 | 4.33 | > 10000 | 295 | 3.04 | 585 | COc1cc2[nH]cnc2cc1-c1c[nH]c2nc(NC(=O)[C@@H]3C[C@@H]3F)ccc12 [Compound 49, (1S,2S)-2-fluoro-N-[3-(6-methoxy-1H-1,3-benzodiazol-5-yl)-1H-pyrrolo[2,3-b]pyridin-6-yl]cyclopropane-1-carboxamide]
8 | 3.9 | > 10000 | 120 | 2.51 | 151 | COc1cc2[nH]ncc2cc1-c1c[nH]c2nc(NC(=O)[C@@H]3C[C@@H]3F)ccc12 [Compound 50, (1S,2S)-2-fluoro-N-[3-(6-methoxy-1H-indazol-5-yl)-1H-pyrrolo[2,3-b]pyridin-6-yl]cyclopropane-1-carboxamide]
9 | 15.4 | > 10000 | 668 | 4.41 | 1350 | COc1c(-c2c[nH]c3nc(NC(=O)[C@H]4C[C@H]4F)ccc23)ccc2[nH]cnc12 [Compound 51, (1R,2R)-2-fluoro-N-[3-(4-methoxy-1H-1,3-benzodiazol-5-yl)-1H-pyrrolo[2,3-b]pyridin-6-yl]cyclopropane-1-carboxamide]
10 | 8.95 | > 10000 | 829 | 13.7 | 3120 | COc1cc2[nH]cnc2cc1-c1c[nH]c2nc(NC(=O)[C@H]3C[C@H]3F)ccc12 [Compound 52, (1R,2R)-2-fluoro-N-[3-(6-methoxy-1H-1,3-benzodiazol-5-yl)-1H-pyrrolo[2,3-b]pyridin-6-yl]cyclopropane-1-carboxamide]
